Experimental data as given in publication PMC7700175, “(E)-1-(Furan-2-yl)-(substituted phenyl)prop-2-en-1-one Derivatives as Tyrosinase Inhibitors and Melanogenesis Inhibition: An In Vitro and In Silico Study” (Molecules, 2020).
Like-named read-outs stand apart in the source and are kept apart here.

Tests used:
[1] = molecular target: T1, Mushroom tyrosinase (EC 1.14.18.1) (Agaricus bisporus, UniProt C7FF04); assay: Mushroom tyrosinase inhibition assay (L-tyrosine or L-DOPA as substrate); type: biochemical
T1 construct: purchased Sigma-Aldrich
T1 sequence (C7FF04 1-392): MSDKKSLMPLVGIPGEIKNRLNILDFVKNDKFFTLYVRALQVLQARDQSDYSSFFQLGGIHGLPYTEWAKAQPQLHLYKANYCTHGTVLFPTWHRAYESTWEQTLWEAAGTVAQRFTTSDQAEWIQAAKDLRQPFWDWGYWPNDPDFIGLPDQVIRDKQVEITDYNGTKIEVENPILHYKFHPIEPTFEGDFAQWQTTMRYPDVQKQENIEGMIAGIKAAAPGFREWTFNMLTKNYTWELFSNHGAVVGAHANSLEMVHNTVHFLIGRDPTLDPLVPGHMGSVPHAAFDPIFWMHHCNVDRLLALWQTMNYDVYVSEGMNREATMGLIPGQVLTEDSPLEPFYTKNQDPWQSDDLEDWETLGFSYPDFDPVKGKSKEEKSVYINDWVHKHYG
Description: In order to evaluate the inhibitory effects of synthesized furan chalcone derivatives on the enzyme activity, tested compounds were subjected to a mushroom tyrosinase inhibition assay with monophenolase (L-tyrosine) or diphenolase (L-3,4-dihydroxyphenyl-alanine; L-DOPA) as the substrates.
Mushroom tyrosinase inhibition was determined following our previously reported methods. All experiments were done in triplicate. […] The measurement was completed in triplicate for each concentration and averaged. The IC50 values were determined by interpolation of the dose-inhibition % curves.

mushroom tyrosinase = molecular target: T2, mushroom tyrosinase (Agaricus bisporus, UniProt C7FF04); details: reported inhibitor type of mushroom tyrosinase; cited from earlier work
T2 construct: purchased Sigma-Aldrich
T2 sequence (C7FF04 1-392): as above

[2] = molecular target: T1, Mushroom tyrosinase (EC 1.14.18.1); parameters: method as in PMID 30360412; details: earlier results of the authors, cited from earlier work
[3] = L-DOPA as substrate (diphenolase), mean ± SEM of triplicate, read-out: IC50 (μM) b
[4] = L-tyrosine as substrate (monophenolase), mean ± SEM of triplicate, read-out: IC50 (μM) a
[5] = IC50 (μM) b, L-DOPA as substrate (diphenolase), mean ± SEM of triplicate

Row | SMILES | IC50 [1, 3] [µM] | IC50 [1, 4] [µM] | also measured
1 | O=C(O)c1ccccc1C(=O)O [Phthalic acid, reference compound] | – | – | IC50 [1]: > 200 µM; IC50 [1, 5]: > 200 µM; inhibition type (mushroom tyrosinase): mixed-type
2 | O=C(O)/C=C/c1ccccc1 [Cinnamic acid, reference compound] | – | – | IC50 [1]: > 200 µM; IC50 [1, 5]: > 200 µM; inhibition type (mushroom tyrosinase): mixed-type
3 | O=C(/C=C/c1ccc(O)c(O)c1)c1ccco1 [Compound 2, (E)-3-(3,4-Dihydroxyphenyl)-1-(furan-2-yl)prop-2-en-1-one] | 24.9 ± 3.25 | 84.9 ± 3.79 | –
4 | COc1cc(/C=C/C(=O)c2ccco2)ccc1O [Compound 3, (E)-1-(Furan-2-yl)-3-(4-hydroxy-3-methoxyphenyl)prop-2-en-1-one] | > 200 | > 200 | –
5 | O=C(/C=C/c1cccs1)c1ccc(O)cc1O [(E)-2,4-dihydroxyphenyl-(thiophen-2-yl)prop-2-en-1-one] | – | – | IC50 ([2]; diphenolase): 0.93 µM; IC50 ([2]; monophenolase): 0.013 µM

Further lines, with some results ahead:

Row | IC50 [1, 3] [µM] | IC50 [1, 4] [µM] | SMILES | also measured
6 | > 200 | 51.2 ± 3.73 | O=C(/C=C/c1ccc(O)c(Br)c1)c1ccco1 [Compound 6, (E)-3-(3-Bromo-4-hydroxyphenyl)-1-(furan-2-yl)prop-2-en-1-one] | –
7 | 37.4 ± 4.89 | 13.6 ± 3.74 | COc1ccc(/C=C/C(=O)c2ccco2)cc1O [Compound 4, (E)-1-(Furan-2-yl)-3-(3-hydroxy-4-methoxyphenyl)prop-2-en-1-one] | –
8 | > 200 | > 200 | COc1cc(/C=C/C(=O)c2ccco2)cc(OC)c1O [Compound 5, (E)-1-(Furan-2-yl)-3-(4-hydroxy-3,5-dimethoxyphenyl)prop-2-en-1-one] | –
9 | > 200 | 28.9 ± 1.21 | O=C(/C=C/c1ccc(O)cc1)c1ccco1 [Compound 1, (E)-1-(Furan-2-yl)-3-(4-hydroxyphenyl)prop-2-en-1-one] | –
10 | 27.2 ± 0.38 | > 200 | O=C(/C=C/c1cc(Br)c(O)c(Br)c1)c1ccco1 [Compound 7, (E)-3-(3,5-Dibromo-4-hydroxyphenyl)-1-(furan-2-yl)prop-2-en-1-one] | –
